Drawing on ChEMBL document CHEMBL1151876, “Constrained (l-)-S-adenosyl-l-homocysteine (SAH) analogues as DNA methyltransferase inhibitors” (Bioorg Med Chem Lett, 2009), this text covers IC50 and inhibition for 21 compounds.

The target of assay [1] is T1, DNA (cytosine-5)-methyltransferase 1 (Homo sapiens, UniProt P26358).
Description: Inhibition of human recombinant DNMT1
The target of assay [2] is T1, DNA (cytosine-5)-methyltransferase 1. The note with it: 45 uM.
Description: Inhibition of human recombinant DNMT1 at 45 uM
For assay [3], the target named is DNA (cytosine-5)-methyltransferase 3B (Homo sapiens, UniProt Q9UBC3).
Description: Inhibition of human recombinant DNMT3b2

T1 sequence (P26358 whole entry): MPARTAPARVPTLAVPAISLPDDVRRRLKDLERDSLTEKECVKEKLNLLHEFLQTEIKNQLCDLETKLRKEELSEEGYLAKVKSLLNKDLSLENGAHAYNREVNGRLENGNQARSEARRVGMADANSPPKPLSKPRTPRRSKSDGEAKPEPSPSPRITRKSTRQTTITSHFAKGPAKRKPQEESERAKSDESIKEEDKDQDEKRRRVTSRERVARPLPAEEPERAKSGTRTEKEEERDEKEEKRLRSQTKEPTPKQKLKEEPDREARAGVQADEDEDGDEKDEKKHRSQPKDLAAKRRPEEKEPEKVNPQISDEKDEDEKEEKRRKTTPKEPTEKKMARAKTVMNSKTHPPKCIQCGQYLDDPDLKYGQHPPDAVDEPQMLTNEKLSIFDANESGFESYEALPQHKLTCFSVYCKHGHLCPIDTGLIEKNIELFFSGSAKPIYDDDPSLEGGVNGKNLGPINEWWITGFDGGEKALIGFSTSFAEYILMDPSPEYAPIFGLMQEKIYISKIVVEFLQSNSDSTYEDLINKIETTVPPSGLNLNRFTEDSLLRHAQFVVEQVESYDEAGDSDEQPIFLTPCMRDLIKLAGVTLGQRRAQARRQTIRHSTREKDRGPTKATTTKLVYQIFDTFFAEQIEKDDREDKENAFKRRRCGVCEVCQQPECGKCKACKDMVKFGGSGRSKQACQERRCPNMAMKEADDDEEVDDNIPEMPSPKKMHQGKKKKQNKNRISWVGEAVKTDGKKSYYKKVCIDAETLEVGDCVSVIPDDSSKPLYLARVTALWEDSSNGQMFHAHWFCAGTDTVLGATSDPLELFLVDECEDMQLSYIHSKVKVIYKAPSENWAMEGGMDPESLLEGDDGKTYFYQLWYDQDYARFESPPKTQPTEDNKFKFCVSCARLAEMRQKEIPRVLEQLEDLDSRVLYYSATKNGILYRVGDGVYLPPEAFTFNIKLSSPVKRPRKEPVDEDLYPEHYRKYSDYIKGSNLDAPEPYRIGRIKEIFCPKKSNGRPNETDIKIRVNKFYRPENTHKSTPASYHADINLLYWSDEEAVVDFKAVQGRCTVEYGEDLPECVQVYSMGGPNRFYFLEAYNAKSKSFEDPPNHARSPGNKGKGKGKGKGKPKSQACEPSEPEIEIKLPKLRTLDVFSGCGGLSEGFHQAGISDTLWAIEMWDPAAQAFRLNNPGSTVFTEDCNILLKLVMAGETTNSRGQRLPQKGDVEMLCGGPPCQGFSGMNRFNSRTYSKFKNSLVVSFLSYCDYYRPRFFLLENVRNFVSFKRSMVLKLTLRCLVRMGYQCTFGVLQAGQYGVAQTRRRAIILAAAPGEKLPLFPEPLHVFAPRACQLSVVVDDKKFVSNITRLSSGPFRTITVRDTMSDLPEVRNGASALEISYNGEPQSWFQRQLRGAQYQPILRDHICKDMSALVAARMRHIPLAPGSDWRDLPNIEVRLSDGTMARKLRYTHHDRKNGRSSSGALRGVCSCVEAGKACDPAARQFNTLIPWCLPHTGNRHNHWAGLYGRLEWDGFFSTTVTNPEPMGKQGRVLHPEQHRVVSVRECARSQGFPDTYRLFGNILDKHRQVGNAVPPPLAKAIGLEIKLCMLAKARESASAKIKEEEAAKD

The compound `CN1CC[C@@H](SC[C@H]2O[C@@H](n3cnc4c(N)ncnc43)[C@H](O)[C@@H]2O)C1` yielded an IC50 in assay [1] of more than 10 µM.

As to `Nc1ncnc2c1ncn2[C@@H]1O[C@H](CS[C@H]2CCCNC2)[C@@H](O)[C@H]1O`, the inhibition in assay [2] is 18%. For `Nc1ncnc2c1ncn2[C@@H]1O[C@H](CS[C@@H]2CCNC2)[C@@H](O)[C@H]1O`, the IC50 came out at 12 µM in assay [3] and 4.8 µM in assay [1]. As to `O=C(O)[C@@H]1C[C@H](SC[C@H]2O[C@@H](n3cnc4c(NCCc5ccc(-c6ccccc6)cc5)nc(Cl)nc43)[C@H](O)[C@@H]2O)CN1`, the midpoint of inhibition in assay [1], the IC50, lay at 2.5 µM. The same measure, in the same setting: as for `CN1C[C@@H](SC[C@H]2O[C@@H](n3cnc4c(N)ncnc43)[C@H](O)[C@@H]2O)C[C@H]1C(=O)O`, the figure is more than 100 µM.

The compound `Nc1nc(Cl)nc2c1ncn2C1O[C@H](CS[C@@H]2CN[C@H](C(=O)O)C2)[C@@H](O)[C@H]1O` (single isomer, unassigned) had an IC50 in assay [1] of 0.82 µM.

`Nc1ncnc2c1ncn2[C@@H]1O[C@H](CS[C@@H]2CN[C@H](C(=O)O)C2)[C@@H](O)[C@H]1O`: the IC50 in assay [3] was 0.3 µM; in assay [1], 1.1 µM. Take `Nc1nc(Cl)nc2c1ncn2C1O[C@H](CS[C@H]2CCNC2)[C@@H](O)[C@H]1O` (single isomer, unassigned): the IC50 in assay [3] was more than 45 µM. In assay [3], `Nc1ncnc2c1ncn2[C@@H]1O[C@H](CSC2CNC2)[C@@H](O)[C@H]1O` displayed an IC50 of more than 100 µM. `NC(=O)[C@@H]1C[C@H](SC[C@H]2O[C@@H](n3cnc4c(N)ncnc43)[C@H](O)[C@@H]2O)CN1` showed an inhibition in assay [2] of 1%. `Nc1ncnc2c1ncn2[C@@H]1O[C@H](CS[C@H]2CCNC2)[C@@H](O)[C@H]1O`: the IC50 turned out to be 26 µM in assay [3] and 44 µM in assay [1]. Consider `Nc1ncnc2c1ncn2[C@@H]1O[C@H](CS[C@@H]2CCN[C@H](C(=O)O)C2)[C@@H](O)[C@H]1O`, for which the IC50 in assay [1] was more than 100 µM. Same read-out and setting: as for `Nc1ncnc2c1ncn2[C@@H]1O[C@H](CS[C@H]2CCN[C@H](C(=O)O)C2)[C@@H](O)[C@H]1O`, the figure is 8 µM; as for `Nc1ncnc2c1ncn2[C@@H]1O[C@H](CS[C@@H]2CCC[C@@H]2N)[C@@H](O)[C@H]1O`, 94 µM. Same read-out and setting: as for `Nc1ncnc2c1ncn2[C@@H]1O[C@H](CS[C@H]2CCN[C@@H](C(=O)O)C2)[C@@H](O)[C@H]1O`, the figure is more than 100 µM. `Nc1ncnc2c1ncn2[C@@H]1O[C@H](CS[C@H]2CN[C@H](C(=O)O)C2)[C@@H](O)[C@H]1O`: the IC50 in assay [3] is 54 µM; in assay [1], more than 100 µM. On to `Nc1ncnc2c1ncn2[C@@H]1O[C@H](CSCC[C@H](N)C(=O)O)[C@@H](O)[C@H]1O` [S-ADENOSYLHOMOCYSTEINE], for which, in assay [3], inhibition was half-maximal at 0.2 µM (IC50). This counts as sub-micromolar.

In the case of `NCCCSC[C@H]1O[C@@H](n2cnc3c(N)ncnc32)[C@H](O)[C@@H]1O`, the IC50 in assay [3] is 17 µM; in assay [1] it was more than 45 µM. Consider `COC(=O)[C@@H]1C[C@H](SC[C@H]2O[C@@H](n3cnc4c(N)ncnc43)[C@H](O)[C@@H]2O)CN1C`, for which the IC50 in assay [1] is 4.5 µM.

On to `COC(=O)[C@@H]1C[C@H](SC[C@H]2O[C@@H](n3cnc4c(N)ncnc43)[C@H](O)[C@@H]2O)CN1`, for which the IC50 in assay [1] amounted to 4 µM. On to `NCCSC[C@H]1O[C@@H](n2cnc3c(N)ncnc32)[C@H](O)[C@@H]1O`, for which the IC50 in assay [1] amounted to 18 µM.
